Target: T1, ZIKV NS2B/NS3 protease (Zika virus, UniProt Q32ZE1)
T1 construct: cut from ZIKV genome polyprotein
Assay: fluorogenic protease assay, AMC release
Type: biochemical

T1 sequence (Q32ZE1 1499-1668): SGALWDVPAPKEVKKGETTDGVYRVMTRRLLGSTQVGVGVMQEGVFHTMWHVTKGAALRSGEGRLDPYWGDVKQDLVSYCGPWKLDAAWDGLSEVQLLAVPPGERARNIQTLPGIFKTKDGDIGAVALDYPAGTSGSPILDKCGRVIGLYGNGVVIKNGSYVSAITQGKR
T1 sequence (Q32ZE1 1417-1463): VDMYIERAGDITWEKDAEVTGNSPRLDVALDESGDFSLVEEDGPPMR

Structure (SMILES)	IC50 [µM]
C=C[C@@H]1C[C@]1(NC(=O)[C@@H]1C[C@@H](Oc2ncc(OC)c3ccc(Cl)cc23)CN1C(=O)[C@@H](NC(=O)OC(C)(C)C)C(C)(C)C)C(=O)NS(=O)(=O)C1CC1 [Asunaprevir]	6
COc1ccc2c(O[C@@H]3C[C@H]4C(=O)N[C@]5(C(=O)NS(=O)(=O)C6CC6)C[C@H]5/C=C\CCCCN(C)C(=O)[C@@H]4C3)cc(-c3nc(C(C)C)cs3)nc2c1C [Simeprevir]	2.6
